{"source": "PubChem BioAssay AID1259409", "about": "(Chemical Carcinogenesis Research Information System (CCRIS), 2018)", "origin": "cited, not measured here", "tested_on": "rodent chemically induced tumor inhibition, incidence and multiplicity", "assay": "CCRIS tumor inhibitor studies", "settings": "Promoter: NONE USED"}
{"smiles": "CC/C(=C(\\c1ccccc1)c1ccc(OCCN(C)C)cc1)c1ccccc1", "values": [{"measurement": "tumour outcome (control, treated, inhibition, significance)", "setting": "Carcinogen: N-METHYL-N-NITROSOUREA, 684-93-5, Dose [Inhibitor]: 50 UG DISSOLVED IN SMALL VOLUME OF ETHANOL AND DILUTED IN 1% GELATIN-0.9% NACL TO INJECTION VOLUME OF 0.2 ML, DAILY STAR, Route [Inhibitor]: INJECTION, Species: RAT, Strain/Sex: SPRAGUE-DAWLEY/FEMALE, Target Tissue: Type of Lesion: MAMMARY GLAND: TUMOR, Dose [Carcinogen]: 5 MG/100 G BW AT 0, 4 AND 8 WK OF STUDY STARTING SIMULTANEOUSLY WITH AGENT TREATMENT", "value": "86%, 9%, 90%, not calculated"}, {"measurement": "tumour outcome (control, treated, inhibition, significance)", "setting": "Carcinogen: N-NITROSO-N-METHYLUREA, 684-93-5, Dose [Inhibitor]: 0, 0.5 MG/KG OF DIET FOR 3 MO BEGINNING 1 WK POST CARCINOGEN DOSE (STUDY DURATION: 100 D), Route [Inhibitor]: ORAL, Species: RAT, Strain/Sex: SPRAGUE-DAWLEY/FEMALE, Target Tissue: Type of Lesion: MAMMARY GLAND: TUMOR, Dose [Carcinogen]: 50 MG/KG BW ONCE", "value": "100%, 75%, 25%, p=0.03"}, {"measurement": "tumour outcome (control, treated, inhibition, significance)", "setting": "Carcinogen: N-NITROSO-N-METHYLUREA, 684-93-5, Dose [Inhibitor]: 0, 0.5 MG/KG OF DIET FOR 4.5 MO BEGINNING 1 WK POST CARCINOGEN DOSE (STUDY DURATION: 100 D), Route [Inhibitor]: ORAL, Species: RAT, Strain/Sex: SPRAGUE-DAWLEY/FEMALE, Target Tissue: Type of Lesion: MAMMARY GLAND: TUMOR, Dose [Carcinogen]: 50 MG/KG BW ONCE", "value": "96%, 50%, 48%, p=0.003"}, {"measurement": "tumour outcome (control, treated, inhibition, significance)", "setting": "Carcinogen: N-NITROSO-N-METHYLUREA, 684-93-5, Dose [Inhibitor]: 0, 1 MG/KG OF DIET FOR 4.5 MO BEGINNING 1 WK POST CARCINOGEN DOSE (STUDY DURATION: 100 D), Route [Inhibitor]: ORAL, Species: RAT, Strain/Sex: SPRAGUE-DAWLEY/FEMALE, Target Tissue: Type of Lesion: MAMMARY GLAND: TUMOR, Dose [Carcinogen]: 50 MG/KG BW ONCE", "value": "96%, 42%, 56%, p<0.001"}, {"measurement": "tumour outcome (control, treated, inhibition, significance)", "setting": "Carcinogen: NONE USED, Dose [Inhibitor]: 0, 125 UG/D FROM SUSTAINED RELEASE SILASTIC CAPSULES ADMINISTERED TO OVARIECTOMIZED MICE FOR 17 MO BEGINNING AT 3 MO OF, Route [Inhibitor]: IMPLANT, Species: MOUSE, Strain/Sex: C3H/OUJ/FEMALE, Target Tissue: Type of Lesion: MAMMARY GLAND: TUMOR", "value": "50%, 22%, 56%, p<0.003"}, {"measurement": "tumour outcome (control, treated, inhibition, significance)", "setting": "Carcinogen: NONE USED, Dose [Inhibitor]: 0, 125 UG/D FROM SUSTAINED RELEASE SILASTIC CAPSULES FOR 3 MO BEGINNING AT 4 MO OF AGE (STUDY DURATION: 18 MO), Route [Inhibitor]: IMPLANT, Species: MOUSE, Strain/Sex: C3H/OUJ/FEMALE, Target Tissue: Type of Lesion: MAMMARY GLAND: TUMOR", "value": "100%, 20%, 80%, p<0.001"}, {"measurement": "tumour outcome (control, treated, inhibition, significance)", "setting": "Carcinogen: NONE USED, Dose [Inhibitor]: 0, 125 UG/D FROM SUSTAINED RELEASE SILASTIC CAPSULES FOR 6 MO BEGINNING AT 3 MO OF AGE (STUDY DURATION: 18 MO), Route [Inhibitor]: IMPLANT, Species: MOUSE, Strain/Sex: C3H/OUJ/FEMALE, Target Tissue: Type of Lesion: MAMMARY GLAND: TUMOR", "value": "100%, 26%, 74%, p<0.001"}, {"measurement": "tumour outcome (control, treated, inhibition, significance)", "setting": "Carcinogen: NONE USED, Dose [Inhibitor]: 0, 125 UG/D FROM SUSTAINED RELEASE SILASTIC CAPSULES FOR 12 MO BEGINNING AT 3 MO OF AGE (STUDY DURATION: 18 MO), Route [Inhibitor]: IMPLANT, Species: MOUSE, Strain/Sex: C3H/OUJ/FEMALE, Target Tissue: Type of Lesion: MAMMARY GLAND: TUMOR", "value": "100%, 24%, 76%, p<0.001"}, {"measurement": "tumour outcome (control, treated, inhibition, significance)", "setting": "Carcinogen: NONE USED, Dose [Inhibitor]: 0, 125 UG/D FROM SUSTAINED RELEASE SILASTIC CAPSULES FOR 17 MO BEGINNING AT 3 MO OF AGE (STUDY DURATION: 27 MO), Route [Inhibitor]: IMPLANT, Species: MOUSE, Strain/Sex: C3H/OUJ/FEMALE, Target Tissue: Type of Lesion: MAMMARY GLAND: TUMOR", "value": "100%, 20%, 80%, p<0.003"}, {"measurement": "tumour outcome (control, treated, inhibition, significance)", "setting": "Carcinogen: PROGESTERONE, 57-83-0, Dose [Inhibitor]: 0, 125 UG/D FROM SUSTAINED RELEASE SILASTIC CAPSULES FOR 3 MO PRIOR TO CARCINOGEN TREATMENT (STUDY DURATION: 18 MO), Route [Inhibitor]: IMPLANT, Species: MOUSE, Strain/Sex: C3H/OUJ/FEMALE, Target Tissue: Type of Lesion: MAMMARY GLAND: TUMOR, Dose [Carcinogen]: 20 MG ADMINISTERED IN SUSTAINED RELEASE SILASTIC CAPSULES FOR A ONE MO DURATION EVERY OTHER MO", "value": "100%, 92%, 8%, not significant"}, {"measurement": "tumour outcome (control, treated, inhibition, significance)", "setting": "Carcinogen: PROGESTERONE, 57-83-0, Dose [Inhibitor]: 0, 125 UG/D FROM SUSTAINED RELEASE SILASTIC CAPSULES FOR 6 MO PRIOR TO CARCINOGEN TREATMENT (STUDY DURATION: 18 MO), Route [Inhibitor]: IMPLANT, Species: MOUSE, Strain/Sex: C3H/OUJ/FEMALE, Target Tissue: Type of Lesion: MAMMARY GLAND: TUMOR, Dose [Carcinogen]: 20 MG ADMINISTERED IN SUSTAINED RELEASE SILASTIC CAPSULES FOR A ONE MO DURATION EVERY OTHER MO", "value": "100%, 52%, 48%, p<0.002"}, {"measurement": "tumour outcome (control, treated, inhibition, significance)", "setting": "Carcinogen: PROGESTERONE, 57-83-0, Dose [Inhibitor]: 0, 125 UG/D FROM SUSTAINED RELEASE SILASTIC CAPSULES FOR 12 MO BEGINNING AT 3 MO OF AGE (STUDY DURATION: 21 MO), Route [Inhibitor]: IMPLANT, Species: MOUSE, Strain/Sex: C3H/OUJ/FEMALE, Target Tissue: Type of Lesion: MAMMARY GLAND: TUMOR, Dose [Carcinogen]: 20 MG ADMINISTERED IN SUSTAINED RELEASE SILASTIC CAPSULES GIVEN FOR A ONE MONTH DURATION EVERY OTHER MO BEGINNING AT 3 M", "value": "100%, 88%, 12%, not significant"}, {"measurement": "tumour outcome (control, treated, inhibition, significance)", "setting": "Carcinogen: SUBCUTANEOUS IMPLANT, Dose [Inhibitor]: ZERANOL, 26538-44-3, Route [Inhibitor]: 0, 5 MG 2/WK TO DAY 32 THEN 1/WK TO DAY 202 (STUDY DURATION: 202 D), Species: HAMSTER, Strain/Sex: SUBCUTANEOUS, Target Tissue: Type of Lesion: LIVER: HEPATOCELLULAR ADENOMA, Dose [Carcinogen]: NONE USED", "value": "56%, 0%, 100%, not calculated"}, {"measurement": "tumour outcome (control, treated, inhibition, significance)", "setting": "Carcinogen: ZERANOL, 26538-44-3, Dose [Inhibitor]: 0, 5 MG 2/WK TO DAY 32 THEN 1/WK TO DAY 202 (STUDY DURATION: 202 D), Route [Inhibitor]: SUBCUTANEOUS, Species: HAMSTER, Strain/Sex: ARMENIAN/FEMALE, Target Tissue: Type of Lesion: LIVER: HEPATOCELLULAR ADENOMA, Dose [Carcinogen]: 36 MG IMPLANTED ON DAYS 0 AND 94", "value": "57%, 0%, 100%, not calculated"}, {"measurement": "tumour outcome (control, treated, inhibition, significance)", "setting": "Carcinogen: ZERANOL, 26538-44-3, Dose [Inhibitor]: 0, 5 MG 2/WK TO DAY 32 THEN 1/WK TO DAY 202 (STUDY DURATION: 202 D), Route [Inhibitor]: SUBCUTANEOUS, Species: HAMSTER, Strain/Sex: ARMENIAN/FEMALE, Target Tissue: Type of Lesion: LIVER: HEPATOCELLULAR CARCINOMA, Dose [Carcinogen]: 36 MG IMPLANTED ON DAYS 0 AND 94", "value": "6/7 (86%), 0/4 (0%), 100%, not calculated"}, {"measurement": "tumour outcome (control, treated, inhibition, significance)", "setting": "Carcinogen: ZERANOL, 26538-44-3, Dose [Inhibitor]: 0, 5 MG 2/WK TO DAY 32 THEN 1/WK TO DAY 202 (STUDY DURATION: 202 D), Route [Inhibitor]: SUBCUTANEOUS, Species: HAMSTER, Strain/Sex: ARMENIAN/MALE, Target Tissue: Type of Lesion: LIVER: HEPATOCELLULAR CARCINOMA, Dose [Carcinogen]: 36 MG IMPLANTED ON DAYS 0 AND 94", "value": "3/9 (33%), 0/4 (0%), 100%, not calculated"}]}
